Experimental data reported in EP4417602A1, “SUBSTITUTED PYRAZOLE CARBOXAMIDES, SALTS THEREOF AND THEIR USE AS HERBICIDALLY ACTIVE SUBSTANCES” (Bayer AG, priority 2023, dated 2024).

Columns and labels:
ECHCG [1] = test: A. Herbicidal pre-emergence action on harmful plants (Tables A); assay type: in vivo, Echinochloa crus-galli; settings: visual grading after ca. 3 weeks vs untreated controls, 100% = plants have died off, 0% = as control plants
Method in brief: (§1)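 Greenhouse pre-emergence test: compound applied to the soil surface at 1280 g/ha or below, and herbicidal effect rated visually at ca. 3 weeks on a 0–100% scale against untreated plants.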

LOLRI = test: as above; assay type: in vivo, Lolium rigidum; settings: visual grading after ca. 3 weeks vs untreated controls, 100% = plants have died off, 0% = as control plants
Method in brief: as §1

MATIN [2] = test: as above; assay type: in vivo, Matricaria inodora; settings: visual grading after ca. 3 weeks vs untreated controls, 100% = plants have died off, 0% = as control plants
Method in brief: as §1

SETVI = test: as above; assay type: in vivo, Setaria viridis; settings: visual grading after ca. 3 weeks vs untreated controls, 100% = plants have died off, 0% = as control plants
Method in brief: as §1

STEME = test: as above; assay type: in vivo, Stellaria media; settings: visual grading after ca. 3 weeks vs untreated controls, 100% = plants have died off, 0% = as control plants
Method in brief: as §1

POAAN [3] = test: as above; assay type: in vivo, Poa annua
Method in brief: as §1

AMARE = test: as above; assay type: in vivo, Amaranthus retroflexus; settings: application rate 1280 g/ha; visual grading after ca. 3 weeks vs untreated controls; 100% = plants have died off, 0% = as control plants
Method in brief: as §1

ALOMY = test: as above; assay type: in vivo, Alopecurus myosuroides
Method in brief: as §1

VERPE [4] = test: as above; assay type: in vivo, Veronica persica; settings: application rate 1280 g/ha; Table A11
Excerpt: Seeds of mono- and dicotyledonous weed plants were sown in plastic pots (double sowings with one species of mono- and one species of dicotyledonous weed plants per pot), in sandy loam, and covered with soil. The compounds according to the invention, formulated in the form of wettable powders (WP) or as emulsifiable concentrates (EC), were applied to the surface of the covering soil as aqueous suspension or emulsion, with the addition of 0.5% of an additive, at an application rate of 6001 of water per hectare (converted). Following treatment, the pots were placed in a greenhouse and kept under optimum growth conditions for the test plants. The visual grading of the damage to the test plants was carried out after ca. 3 weeks in comparison to untreated controls (herbicidal effect in percent (%): 100% effect = plants have died off, 0% effect = as control plants). Tables A1 to A12, below, show the effects of selected compounds of the general formula (I) according to table 1 on various harmful plants and an application rate corresponding to 1280 g/ha or below obtained by the experimental procedure mentioned above. Table A1: pre-emergence activity at 1280g/ha against ABUTH in %

DIGSA [5] = test: as above; assay type: in vivo, Digitaria sanguinalis
Method in brief: as §1

ABUTH = test: B. Herbicidal post-emergence action on harmful plants (Tables B); assay type: in vivo, Abutilon theophrasti; settings: application rate 1280 g/ha; Table B1a
Protocol: (§2) Seeds of mono- and dicotyledonous weed plants were placed in plastic pots in sandy loam soil (doubly sown with in each case one species of mono- or dicotyledonous weed plants per pot), covered with soil and cultivated in a greenhouse under controlled growth conditions. 2 to 3 weeks after sowing, the test plants were treated at the one-leaf stage. The compounds of the invention, formulated in the form of wettable powders (WP) or as emulsion concentrates (EC), were applied onto the green parts of the plants as aqueous suspension or emulsion with addition of 0.5% additive at a water application rate of 600 liters per hectare (converted). After the test plants had been kept in the greenhouse under optimum growth conditions for about 3 weeks, the activity of the preparations was rated visually in comparison to untreated controls. For example, 100% activity = the plants have died, 0% activity = like control plants. Tables B1 to B12, below, show the effects of selected compounds of the general formula (I) according to table 1 on various harmful plants and an application rate corresponding to 1280 g/ha or below obtained by the experimental procedure mentioned above. Table B1a: post-emergence activity at 1280g/ha against ABUTH in %

ECHCG [6] = test: as above; assay type: in vivo, Echinochloa crus-galli; settings: application rate 1280 g/ha; Table B2a
Method in brief: (§3)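 Activity was scored visually as % damage (100% = dead, 0% = like untreated) about 3 weeks after treatment. Plants at the one-leaf stage, 2-3 weeks old, were sprayed with WP/EC formulations plus 0.5% additive (600 L/ha water, up to 1280 g/ha). Plants were grown in sandy loam in a greenhouse.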

MATIN [7] = test: as above; assay type: in vivo, Matricaria inodora
Method in brief: as §3

POAAN [8] = test: as above; assay type: in vivo, Poa annua
Method in brief: as §3

VERPE [9] = test: as above; assay type: in vivo, Veronica persica; settings: application rate 1280 g/ha; Table B11a
Method in brief: as §3

DIGSA [10] = test: as above; assay type: in vivo, Digitaria sanguinalis; settings: application rate 1280 g/ha; Table B12a
Protocol: as §2

## COCc1nn(C)cc1C(=O)N1CCCC1Cc1cccc(F)c1F (racemic) [Example I-077]
ECHCG [1]; application rate 80 g/ha
  pre-emergence activity against ECHCG: 90%
ECHCG [1]; application rate 320 g/ha
  pre-emergence activity against ECHCG: 90%
ECHCG [1]; application rate 1280 g/ha
  pre-emergence activity against ECHCG: 100%
LOLRI; application rate 320 g/ha
  pre-emergence activity against LOLRI: 90%
LOLRI; application rate 1280 g/ha
  pre-emergence activity against LOLRI: 100%
MATIN [2]; application rate 320 g/ha
  pre-emergence activity against MATIN: 90%
MATIN [2]; application rate 1280 g/ha
  pre-emergence activity against MATIN: 90%
SETVI; application rate 320 g/ha
  pre-emergence activity against SETVI: 90%
SETVI; application rate 1280 g/ha
  pre-emergence activity against SETVI: 90%
STEME; application rate 80 g/ha
  pre-emergence activity against STEME: 90%
STEME; application rate 320 g/ha
  pre-emergence activity against STEME: 90%
STEME; application rate 1280 g/ha
  pre-emergence activity against STEME: 90%
POAAN [3]; application rate 80 g/ha, Table A7c
  pre-emergence activity against POAAN: 100%
POAAN [3]; application rate 320 g/ha, Table A7b
  pre-emergence activity against POAAN: 100%
POAAN [3]; application rate 1280 g/ha, visual grading after ca. 3 weeks vs untreated controls, 100% = plants have died off, 0% = as control plants
  pre-emergence activity against POAAN: 100%
AMARE
  pre-emergence activity against AMARE: 90%
ALOMY; application rate 320 g/ha, Table A9b
  pre-emergence activity against ALOMY: 90%
ALOMY; application rate 1280 g/ha, Table A9a
  pre-emergence activity against ALOMY: 90%
VERPE [4]
  pre-emergence activity against VERPE: 90%
DIGSA [5]; application rate 320 g/ha, Table A12b
  pre-emergence activity against DIGSA: 100%
DIGSA [5]; application rate 1280 g/ha, Table A12a
  pre-emergence activity against DIGSA: 100%
ABUTH
  post-emergence activity against ABUTH: 90%
ECHCG [6]
  post-emergence activity against ECHCG: 90%
MATIN [7]; application rate 320 g/ha, Table B4b
  post-emergence activity against MATIN: 90%
MATIN [7]; application rate 1280 g/ha, Table B4a
  post-emergence activity against MATIN: 90%
POAAN [8]; application rate 320 g/ha, Table B7b
  post-emergence activity against POAAN: 90%
POAAN [8]; application rate 1280 g/ha, Table B7a
  post-emergence activity against POAAN: 90%
VERPE [9]
  post-emergence activity against VERPE: 90%
DIGSA [10]
  post-emergence activity against DIGSA: 90%
